From PubChem BioAssay (NCI)
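The concentration for 50% growth inhibition is given as GI50. TGI is the concentration that stops growth completely.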

How the values were obtained:
Assay in all cases: NCI anticancer screen, dose series, 384-well format; in the data active = GI50 below about 0.43 µM; inactive = the rest
[1] = tested on: 786-0 renal
[2] = tested on: A498 renal
[3] = tested on: A549 NSCLC
[4] = tested on: ACHN renal
[5] = tested on: BT-549 breast
[6] = tested on: CAKI-1 renal
[7] = tested on: COLO 205 colon
[8] = tested on: DU-145 prostate
[9] = tested on: EKVX NSCLC
[10] = tested on: HCT-116 colon
[11] = tested on: HCT-15 colon
[12] = tested on: HL-60(TB) leukemia
[13] = tested on: HOP-62 NSCLC
[14] = tested on: HOP-92 NSCLC
[15] = tested on: HS 578T breast
[16] = tested on: HT29 colon
[17] = tested on: IGROV1 ovarian
[18] = tested on: K-562 leukemia
[19] = tested on: KM12 colon
[20] = tested on: M14 melanoma
[21] = tested on: MALME-3M melanoma
[22] = tested on: MCF7 breast
[23] = tested on: MDA-MB-231 breast
[24] = tested on: MDA-MB-435 melanoma
[25] = tested on: MDA-MB-468 breast
[26] = tested on: MOLT-4 leukemia
[27] = tested on: NCI-H226 lung
[28] = tested on: NCI-H23 lung
[29] = tested on: NCI-H322M lung
[30] = tested on: NCI-H460 NSCLC
[31] = tested on: NCI-H522 lung
[32] = tested on: OVCAR-3 ovarian
[33] = tested on: OVCAR-4 ovarian
[34] = tested on: OVCAR-5 ovarian
[35] = tested on: OVCAR-8 ovarian
[36] = tested on: PC-3 prostate
[37] = tested on: RXF 393 renal
[38] = tested on: SF-268 CNS
[39] = tested on: SF-295 CNS
[40] = tested on: SF-539 CNS
[41] = tested on: SK-MEL-2 melanoma
[42] = tested on: SK-MEL-28 melanoma
[43] = tested on: SK-MEL-5 melanoma
[44] = tested on: SK-OV-3 ovarian
[45] = tested on: SN12C renal
[46] = tested on: SNB-19 CNS
[47] = tested on: SNB-75 CNS
[48] = tested on: SR leukemia
[49] = tested on: SW-620 colon
[50] = tested on: T-47D breast
[51] = tested on: TK-10 renal
[52] = tested on: U251 glioblastoma
[53] = tested on: UACC-257 melanoma
[54] = tested on: UACC-62 melanoma
[55] = tested on: UO-31 renal

Cc1sc2c(c1C)C(c1ccc(Cl)cc1)=N[C@@H](CC(=O)NCCCN1CCN(C)CC1)c1nnc(C)n1-2
71600 nM: TGI [50]
26400 nM: TGI [21]
26900 nM: TGI [40]
2900 nM: TGI [37]
10600 nM: TGI [26]
37900 nM: TGI [43]
> 100000 nM: TGI [1] | TGI [2] | TGI [3] | TGI [4] | TGI [6] | TGI [7] | TGI [8] | TGI [9] | TGI [10] | TGI [11] | TGI [13] | TGI [14] | TGI [16] | TGI [17] | TGI [18] | TGI [19] | TGI [20] | TGI [23] | TGI [24] | TGI [27] | TGI [29] | TGI [30] | TGI [32] | TGI [34] | TGI [35] | TGI [36] | TGI [38] | TGI [39] | TGI [42] | TGI [44] | TGI [45] | TGI [46] | TGI [47] | TGI [48] | TGI [49] | TGI [51] | TGI [52] | TGI [54] | TGI [55]
27 nM: TGI [12]
352 nM: TGI [31]
24500 nM: TGI [41]
active: GI50 [5] 238 nM | GI50 [7] 257 nM | GI50 [10] 407 nM | GI50 [12] 12.8 nM | GI50 [15] 38.1 nM | GI50 [16] 143 nM | GI50 [17] 277 nM | GI50 [18] 154 nM | GI50 [20] 404 nM | GI50 [21] 330 nM | GI50 [22] 24.2 nM | GI50 [23] 67.4 nM | GI50 [25] 48.4 nM | GI50 [26] 105 nM | GI50 [28] 308 nM | GI50 [29] 226 nM | GI50 [31] 31.6 nM | GI50 [32] 148 nM | GI50 [33] 148 nM | GI50 [37] 338 nM | GI50 [40] 312 nM | GI50 [41] 36.6 nM | GI50 [44] 208 nM | GI50 [48] 71.1 nM | GI50 [54] 53.8 nM
21900 nM: TGI [53]
11400 nM: TGI [5] | TGI [15]
56900 nM: TGI [28]
inactive: GI50 [1] 1790 nM | GI50 [2] 3310 nM | GI50 [3] 854 nM | GI50 [4] 10200 nM | GI50 [6] 677 nM | GI50 [8] 7160 nM | GI50 [9] 31500 nM | GI50 [11] 13000 nM | GI50 [13] 448 nM | GI50 [14] 486 nM | GI50 [19] 56000 nM | GI50 [24] 1330 nM | GI50 [27] 1520 nM | GI50 [30] 453 nM | GI50 [34] 666 nM | GI50 [35] 1210 nM | GI50 [36] 583 nM | GI50 [38] 12000 nM | GI50 [39] 7300 nM | GI50 [42] 10100 nM | GI50 [43] 462 nM | GI50 [45] > 100000 nM | GI50 [46] > 100000 nM | GI50 [47] 443 nM | GI50 [49] 23300 nM | GI50 [50] 529 nM | GI50 [51] 1190 nM | GI50 [52] 2490 nM | GI50 [53] 985 nM | GI50 [55] 30200 nM
1630 nM: TGI [33]
4880 nM: TGI [22]
729 nM: TGI [25]
